Reference: publication PMC11435625, “In Vitro Hepatic Clearance Evaluations of Per- and Polyfluoroalkyl Substances (PFAS) across Multiple Structural Categories” (Toxics, 2024)

What was measured:
[1] = system: pooled primary human hepatocyte suspensions; experiment: Hepatic clearance assay (substrate depletion, LC-MS); settings: in µL/min/10^6 cells; for CLint for HTTK: CLint value carried into HTTK/IVIVE; for in vitro CLint exp assay / Unadj Clint: pooled primary human hepatocyte suspensions; for Unadj Clint: unadjusted hepatic intrinsic clearance, Table S4
Description: The rate of hepatic clearance was determined as previously described for a set of PFAS [11]. Analysis was conducted across two laboratories at the Division of Translational Toxicology (DTT) at the National Institute of Environmental Health Sciences (NIEHS) and the Center for Computational Toxicology and Exposure at the USEPA. The PFAS analyzed in each lab can be found in the Supplementary Materials.
The hepatic clearance assay was performed at both the DTT and EPA laboratories as described below. The pooled human hepatocyte suspensions used in this work were purchased commercially and meet the ethical and scientific standards described in the Human Ethics Rule (40 CFR 26). The suspensions were prepared from hepatocytes obtained from de-identified donors by a commercial vendor.
PFAS stock solutions prepared in DMSO were added to prewarmed William’s E medium to make a 2X working stock solution (2 µM). […] The working stock solutions were then transferred to a 96-well polypropylene plate and placed in an incubator at 37 °C with 5% carbon dioxide prior to adding cells. Cryopreserved pooled primary human hepatocyte suspensions (50-donor pool, mixed gender; BioIVT; Westbury, NY, USA) were thawed and transferred to vials containing hepatocyte thawing medium. After centrifuging for 5–10 min at 100× g, thawing medium was removed, being careful not to disturb the cell pellet. The primary human hepatocytes were then resuspended in pre-warmed complete Williams E medium to achieve a cell density of ~1.0 × 10^6 viable cells/mL as determined by Trypan Blue exclusion. Cells were then added to the 96-well incubation plates containing PFAS to achieve a final density of ~0.5 × 10^6 viable cells/mL and a 1 μM assay concentration (Ctest), then placed in incubator on a shaker at 300 rpm. Triplicate samples were removed from the incubator at time points ranging from 0 to 240 min and quenched with a total crash in 2–3 volumes of ice-cold acetonitrile. Samples were spun at 4000× g for 20 min, and supernatants were transferred to new tubes and stored at <−70 °C until analysis. Media-only (no cell) and/or heat-inactivated hepatocytes were included as negative controls for each chemical to evaluate and estimate chemical loss due to nonmetabolic processes (e.g., hydrolysis). Phenacetin was included in all runs as an assay reference compound; EPA also included propranolol as an additional reference compound.
Assay samples were diluted in mobile phase and analyzed using a Thermo Vanquish UPLC system with a Thermo Hypersil Gold aQ C18 column (100 × 2.1 mm, 1.9 […], Thermo Fisher Scientific Inc.) coupled to a Q Exactive Plus mass spectrometer. Gradient elution was used in the chromatographic separations using water with 20 mM ammonium acetate (mobile phase A) and methanol (mobile phase B), with the following gradient program: 0.5–7 min, 30%–90% B; 7–8 min, 90% B; 8–9 min, 90%–30% B; and 9–10 min, 30% B. The first minute of each injection was diverted to waste to avoid introduction of excessive salts from incubation medium. Analysis was detected in negative ion mode. Samples were quantified against an external, matrix-matched calibration curve. Additional methodologic information is available in Table S2.
To perform SPE, a positive-pressure manifold was employed along with Oasis WAX µElution plates and Oasis HLB 30 mg plates (Waters, Milford, MA, USA) for PFAS and positive-control extraction, respectively. […] The sorbent was then washed with 1% formic acid and water. Samples were eluted in 2% ammonia in methanol for analysis. Similarly, HLB plates were conditioned with methanol and water before sample was loaded onto the sorbent. The wells were then washed with 5% methanol in water and water before elution in methanol. For samples not undergoing SPE, the supernatant of the crashed assay sample was diluted in mobile phase prior to analysis. The first 1.5 min of the run was diverted to waste to prevent salt contamination.

[2] = IVIVE: steady-state concentration (Css), generic HTTK model; design: species or system human; settings: for Css (mg/L) / Css (uM): Assuming 1 mg/kg/day dose rate, BW 70 kg; for CLhep: QL 1500000 uL/min; for Fub: fub=fup/(B:P), Fub set to 1 if needed; for CLint: scaled to whole liver: HPGL 110 mill cells/g, Vl 1596 g
Description: IVIVE was performed as previously described to calculate human steady-state concentrations (Css). Briefly, experimental plasma protein binding data presented elsewhere were transformed to fraction unbound in blood using blood-to-plasma partitioning values. Experimental Clint values generated here are used in conjunction with relevant liver scalars to scale up to estimate whole liver clearance. […] Once Css values were established, these were used with the PFAS-specific in vitro POD data to calculate the administered equivalent doses (AEDs) using reverse dosimetry. […] The fifth-percentile AC50 value was used to define the in vitro POD. All relevant inputs, scalars, and calculations are provided in Supplementary Information, as indicated in the results.

plasma protein = settings: fraction unbound in plasma, input for IVIVE calculations; cited from earlier work

## O=C(O)C(F)(F)C(F)(F)C(F)(F)OC(F)(C(F)(F)F)C(F)(F)F
[1]
  CLint for HTTK: 5.78
  in vitro CLint exp assay: 5.78
[2]
  Css (mg/L): 11.42 mg/L
  Css (uM): 30.05 µM
  CLhep: 0.232 L/h
  Fub: 0.003818
  CLint: 1014737 µL/min
Plasma protein
  Mean fu: 0.0021

## O=C([O-])C(F)(F)C(F)(F)C(F)(F)C(F)(F)C(F)(F)C(F)(F)C(F)(F)F.[K+] [Potassium perfluorooctanoate]
[1]
  Unadj Clint: 0.00

## O=C(O)C(F)(F)C(F)(F)C(F)(F)C(F)(F)C(F)(F)C(F)(F)C(F)(F)F [Sodium perfluorooctanoate]
[1]
  Unadj Clint: 2.34

## O=C(O)CCC(F)(F)C(F)(F)C(F)(F)C(F)(F)C(F)(F)C(F)(F)F [6:3 Fluorotelomer carboxylic acid]
[1]
  Unadj Clint: 5.05

## O=C(O)C(F)(F)C(F)(F)C(F)(F)C(F)(F)C(F)(F)C(F)(F)C(F)(F)F [Perfluorooctanoic acid (PFOA)]
[1]
  CLint for HTTK: 0
  in vitro CLint exp assay: 0
[2]
  Css (mg/L): 241.34 mg/L
  Css (uM): 582.99 µM
  CLhep: 0.000 L/h
  Fub: 0.001818
  CLint: 0 µL/min
Plasma protein
  Mean fu: 0.001

## O=C(O)C(F)(F)C(F)(F)C(F)(F)C(F)(F)C(F)(F)C(F)(F)C(F)F [8H-Perfluorooctanoic acid (8H-PFOA)]
[1]
  CLint for HTTK: 0
  in vitro CLint exp assay: 0
[2]
  Css (mg/L): 114.93 mg/L
  Css (uM): 290.23 µM
  CLhep: 0.000 L/h
  Fub: 0.003818
  CLint: 0 µL/min
Plasma protein
  Mean fu: 0.0021

## O=C(O)C(F)(F)C(F)(F)C(F)F [4H-perfluorobutanoic acid (4H-PFBA)]
[1]
  CLint for HTTK: 0
  in vitro CLint exp assay: 0
[2]
  Css (mg/L): 1.41 mg/L
  Css (uM): 7.18 µM
  CLhep: 0.000 L/h
  Fub: 0.3116
  CLint: 0 µL/min
Plasma protein
  Mean fu: 0.1714

## O=S(=O)(OCC(F)(F)F)C(F)(F)C(F)(F)C(F)(F)C(F)(F)F [2,2,2-Trifluoroethyl perfluorobutanesulfonate]
[1]
  CLint for HTTK: 0
  in vitro CLint exp assay: 0.00
  Unadj Clint: 2.84
[2]
  Css (mg/L): 65.09 mg/L
  Css (uM): 170.41 µM
  CLhep: 0.000 L/h
  Fub: 0.006742
  CLint: 0 µL/min
Plasma protein
  Mean fu: 0.0039

## O=S(=O)([O-])C(F)(F)C(F)(F)C(F)(F)C(F)(F)C(F)(F)C(F)(F)C(F)(F)C(F)(F)F.[K+]
[1]
  CLint for HTTK: 0
  in vitro CLint exp assay: 2.96
[2]
  Css (mg/L): 60.34 mg/L
  Css (uM): 120.69 µM
  CLhep: 0.000 L/h
  Fub: 0.007273
  CLint: 0 µL/min
Plasma protein
  Mean fu: 0.004

## O=C(O)C(F)(F)C(F)(F)C(F)(F)F [Perfluorobutanoic acid]
[1]
  Unadj Clint: 0.08

## O=C(O)C(F)(F)C(F)(F)C(F)F [4H-Perfluorobutanoic acid]
[1]
  Unadj Clint: 0.90

## O=S(=O)([O-])C(F)(F)C(F)(F)C(F)(F)C(F)(F)C(F)(F)C(F)(F)C(F)(F)C(F)(F)C(F)(F)C(F)(F)F.[Na+] [Sodium perfluorodecanesulfonate (NaPFDS)]
[1]
  CLint for HTTK: 0
  in vitro CLint exp assay: 0.00
[2]
  Css (mg/L): 4.57 mg/L
  Css (uM): 7.62 µM
  CLhep: 0.000 L/h
  Fub: 0.096
  CLint: 0 µL/min
Plasma protein
  Mean fu: 0.0528

## O=S(=O)([O-])C(F)(F)C(F)(F)C(F)(F)C(F)(F)C(F)(F)C(F)(F)F.[K+]
[1]
  CLint for HTTK: 0
  in vitro CLint exp assay: 0
[2]
  Css (mg/L): 241.34 mg/L
  Css (uM): 603.44 µM
  CLhep: 0.000 L/h
  Fub: 0.001818
  CLint: 0 µL/min
Plasma protein
  Mean fu: 0.001

## O=S(=O)([O-])C(F)(F)C(F)(F)C(F)(F)C(F)(F)C(F)(F)C(F)(F)C(F)(F)C(F)(F)F.[K+] [Potassium perfluorooctanesulfonate]
[1]
  Unadj Clint: 2.96

## O=C(O)C(F)(F)C(F)(F)C(F)(F)OC(F)(F)F [Perfluoro(4-methoxybutanoic) acid]
[1]
  Unadj Clint: 1.50

## O=C(O)C(F)(F)C(F)(F)C(F)(F)C(F)(F)C(F)(F)C(F)(F)C(F)(F)C(F)(F)C(F)(F)C(F)(F)F [Perfluoroundecanoic acid]
[1]
  Unadj Clint: 0.00

## O=S(=O)(Cl)C(F)(F)C(F)(F)C(F)(F)C(F)(F)C(F)(F)C(F)(F)C(F)(F)C(F)(F)F [Perfluoro-1-octanesulfonyl chloride]
[1]
  Unadj Clint: 0.00

## O=C(O)C(F)(F)OC(F)(F)C(F)(F)OC(F)(F)F [Perfluoro-3,6-dioxaheptanoic acid]
[1]
  Unadj Clint: 0.00

## O=C(O)C(F)(F)C(F)(F)F [Perfluoropropanoic acid]
[1]
  Unadj Clint: 0.59

## O=C(O)C(F)(F)C(F)(F)C(F)(F)C(F)(F)C(F)(F)C(F)(F)C(F)(F)C(F)(F)C(F)(F)C(F)(F)C(F)(F)C(F)(F)C(F)(F)F [Perfluorotetradecanoic acid]
[1]
  Unadj Clint: 0.00

## O=S(=O)([O-])C(F)(F)C(F)(F)C(F)(F)C(F)(F)F.[K+] [Potassium perfluorobutanesulfonate]
[1]
  Unadj Clint: 0.00

## O=S(=O)([O-])C(F)(F)C(F)(F)C(F)(F)C(F)(F)C(F)(F)C(F)(F)C(F)(F)C(F)(F)C(F)(F)C(F)(F)F.[Na+] [Sodium perfluorodecanesulfonate]
[1]
  Unadj Clint: 3.39

## N.O=C(O)C(F)(F)C(F)(F)C(F)(F)C(F)(F)C(F)(F)C(F)(F)C(F)(F)F [Ammonium perfluorooctanoate]
[1]
  Unadj Clint: 2.06
